Laboratory results taken from US11254668B2, “Pyrazolo[1,5-A]pyrazin-4-yl and related derivatives” (Pfizer Inc., priority 2017, dated 2022).

Tests used:
Assay type in all cases: biochemical
[1] = molecular target: TYK2 (Homo sapiens (Human), UniProt P29597); assay: JAK Caliper Enzyme Assay at 1 mM ATP, TYK2
In short: (§1)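 Human recombinant kinase domain + fluorescently labelled synthetic peptide, 1 mM ATP, RT; enzyme level/time set for 20–30% phosphorylation. EDTA stop. LabChip separation, peak-height % conversion, % effect vs plate controls.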

[2] = molecular target: JAK1 (Homo sapiens (Human), UniProt P23458); assay: JAK Caliper Enzyme Assay at 1 mM ATP, JAK1
In short: (§2)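 Recombinant human kinase domains phosphorylated a fluorescent synthetic peptide at room temperature, with enzyme level and time tuned to 20% to 30% conversion; EDTA stop buffer ended reactions. Mobility-shift separation gave percent product from peak heights, normalised to DMSO and positive controls, and IC50s came from concentration–effect curves.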

[3] = molecular target: JAK2 (Homo sapiens (Human), UniProt O60674); assay: JAK Caliper Enzyme Assay at 1 mM ATP, JAK2
In short: as §1

[4] = molecular target: JAK3 (Homo sapiens (Human), UniProt P52333); assay: JAK Caliper Enzyme Assay at 1 mM ATP, JAK3
In short: as §2

Sequence of JAK2 (O60674 849-1124): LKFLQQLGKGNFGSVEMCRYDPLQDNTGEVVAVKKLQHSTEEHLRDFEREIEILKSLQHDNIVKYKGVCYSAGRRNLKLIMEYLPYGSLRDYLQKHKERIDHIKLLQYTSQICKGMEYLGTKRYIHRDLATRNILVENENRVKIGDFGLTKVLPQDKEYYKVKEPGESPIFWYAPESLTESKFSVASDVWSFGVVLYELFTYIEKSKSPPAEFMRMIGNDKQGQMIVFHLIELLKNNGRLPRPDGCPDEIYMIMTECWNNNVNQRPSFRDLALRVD
Sequence of TYK2 (P29597 897-1176): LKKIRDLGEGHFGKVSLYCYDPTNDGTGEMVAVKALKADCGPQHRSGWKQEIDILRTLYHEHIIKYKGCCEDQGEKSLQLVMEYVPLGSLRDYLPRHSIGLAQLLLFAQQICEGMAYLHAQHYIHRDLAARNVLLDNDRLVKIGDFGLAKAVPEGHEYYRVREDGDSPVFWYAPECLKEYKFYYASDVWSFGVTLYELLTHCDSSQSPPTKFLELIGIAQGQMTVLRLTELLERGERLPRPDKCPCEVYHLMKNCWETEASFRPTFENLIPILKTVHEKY
Sequence of JAK3 (P52333 822-1111): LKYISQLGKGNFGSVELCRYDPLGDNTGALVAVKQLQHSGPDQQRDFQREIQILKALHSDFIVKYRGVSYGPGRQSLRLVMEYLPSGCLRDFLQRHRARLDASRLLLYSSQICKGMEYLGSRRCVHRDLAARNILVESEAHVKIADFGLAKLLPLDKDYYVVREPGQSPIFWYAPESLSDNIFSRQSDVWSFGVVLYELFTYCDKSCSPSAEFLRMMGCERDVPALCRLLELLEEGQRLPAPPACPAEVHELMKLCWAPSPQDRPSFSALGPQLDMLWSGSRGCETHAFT
Sequence of JAK1 (P23458 875-1153): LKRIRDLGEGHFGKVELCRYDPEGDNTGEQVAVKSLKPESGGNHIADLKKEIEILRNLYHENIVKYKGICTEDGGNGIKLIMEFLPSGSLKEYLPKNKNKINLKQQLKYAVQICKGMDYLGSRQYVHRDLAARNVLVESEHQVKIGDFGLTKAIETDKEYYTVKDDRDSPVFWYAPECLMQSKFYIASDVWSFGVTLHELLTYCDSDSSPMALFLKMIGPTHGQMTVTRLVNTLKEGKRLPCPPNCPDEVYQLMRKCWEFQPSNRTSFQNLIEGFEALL

| SMILES | IC50 [1] | IC50 [2] | IC50 [3] | IC50 [4] |
| --- | --- | --- | --- | --- |
| CS(=O)(=O)N1CC(CC#N)(n2ccc(-c3nc(-c4ccn5ccnc5c4)cc4ncccc34)n2)C1 [Example 163, [3-{3-[7-(imidazo[1,2-a]pyridin-7-yl)-1,6-naphthyridin-5-yl]-1H-pyrazol-1-yl}-1-(methylsulfonyl)azetidin-3-yl]acetonitrile] | 42 nM | 4060 nM | 294 nM | > 10 µM |
| Cn1cnc2cc(-c3cc4ncccc4c(-c4ccn(C5(CC#N)CN(S(C)(=O)=O)C5)n4)n3)cnc21 [Example 164, [3-{3-[7-(3-methyl-3H-imidazo[4,5-b]pyridin-6-yl)-1,6-naphthyridin-5-yl]-1H-pyrazol-1-yl}-1-(methylsulfonyl)azetidin-3-yl]acetonitrile] | 235 nM | 6570 nM | 4720 nM | > 10 µM |
| CS(=O)(=O)N1CC(CC#N)(n2ccc(-c3nc(-c4cnc5nccn5c4)cc4ncccc34)n2)C1 [Example 165, [3-{3-[7-(imidazo[1,2-a]pyrimidin-6-yl)-1,6-naphthyridin-5-yl]-1H-pyrazol-1-yl}-1-(methylsulfonyl)azetidin-3-yl]acetonitrile] | 1390 nM | > 10000 nM | 9440 nM | > 10 µM |
| CS(=O)(=O)N1CC(CC#N)(n2ccc(-c3nc(-c4cnc5cn[nH]c5c4)cc4ncccc34)n2)C1 [Example 166, [1-(methylsulfonyl)-3-{3-[7-(1H-pyrazolo[4,3-b]pyridin-6-yl)-1,6-naphthyridin-5-yl]-1H-pyrazol-1-yl}azetidin-3-yl]acetonitrile] | 44 nM | 7380 nM | 728 nM | > 10 µM |
| N#CCC1(n2ccc(-c3nc(-c4ccc5nncn5c4)cc4ncccc34)n2)CN(CC(F)(F)F)C1 [Example 167, [3-{3-[7-([1,2,4]triazolo[4,3-a]pyridin-6-yl)-1,6-naphthyridin-5-yl]-1H-pyrazol-1-yl}-1-(2,2,2-trifluoroethyl)azetidin-3-yl]acetonitrile] | 129 nM | 2730 nM | 1290 nM | > 10 µM |
| CS(=O)(=O)N1CC(CC#N)(n2ccc(-c3nc(-c4cnn5cccnc45)cc4ncccc34)n2)C1 [Example 168, [1-(methylsulfonyl)-3-{3-[7-(pyrazolo[1,5-a]pyrimidin-3-yl)-1,6-naphthyridin-5-yl]-1H-pyrazol-1-yl}azetidin-3-yl]acetonitrile] | 592 nM | 8820 nM | 6590 nM | > 10 µM |
| CS(=O)(=O)N1CC(CC#N)(n2ccc(-c3nc(-c4cnc5[nH]c(=O)[nH]c5c4)cc4ncccc34)n2)C1 [Example 169, [1-(methylsulfonyl)-3-{3-[7-(2-oxo-2,3-dihydro-1H-imidazo[4,5-b]pyridin-6-yl)-1,6-naphthyridin-5-yl]-1H-pyrazol-1-yl}azetidin-3-yl]acetonitrile] | 22 nM | > 10000 nM | 241 nM | > 10 µM |
| CS(=O)(=O)N1CC(CC#N)(n2ccc(-c3nc(-c4cnc5c(c4)NCCN5)cc4ncccc34)n2)C1 [Example 170, [1-(methylsulfonyl)-3-{3-[7-(1,2,3,4-tetrahydropyrido[2,3-b]pyrazin-7-yl)-1,6-naphthyridin-5-yl]-1H-pyrazol-1-yl}azetidin-3-yl]acetonitrile] | 56 nM | 1430 nM | 399 nM | > 10 µM |
| N#CCC1(n2ccc(-c3nc(-c4ccncc4)cc4ncccc34)n2)CN(CC(F)(F)F)C1 [Example 172, [3-{3-[7-(pyridin-4-yl)-1,6-naphthyridin-5-yl]-1H-pyrazol-1-yl}-1-(2,2,2-trifluoroethyl)azetidin-3-yl]acetonitrile] | 27 nM | 608 nM | 388 nM | > 10 µM |
| Cc1cncc(-c2cc3ncccc3c(-c3ccn(C4(CC#N)CN(CC(F)(F)F)C4)n3)n2)c1 [Example 173, [3-{3-[7-(5-methylpyridin-3-yl)-1,6-naphthyridin-5-yl]-1H-pyrazol-1-yl}-1-(2,2,2-trifluoroethyl)azetidin-3-yl]acetonitrile] | 1880 nM | > 10000 nM | 7880 nM | > 10 µM |
| Cc1cc(-c2cc3ncccc3c(-c3ccn(C4(CC#N)CN(S(C)(=O)=O)C4)n3)n2)ccn1 [Example 174, [3-{3-[7-(2-methylpyridin-4-yl)-1,6-naphthyridin-5-yl]-1H-pyrazol-1-yl}-1-(methylsulfonyl)azetidin-3-yl]acetonitrile] | 49 nM | 785 nM | 332 nM | > 10 µM |
| Cc1ccc(-c2cc3ncccc3c(-c3ccn(C4(CC#N)CN(S(C)(=O)=O)C4)n3)n2)cn1 [Example 175, [3-{3-[7-(6-methylpyridin-3-yl)-1,6-naphthyridin-5-yl]-1H-pyrazol-1-yl}-1-(methylsulfonyl)azetidin-3-yl]acetonitrile] | 135 nM | 5740 nM | 1180 nM | > 10 µM |
| Cc1cc(-c2cc3ncccc3c(-c3ccn(C4(CC#N)CN(CC(F)(F)F)C4)n3)n2)ccn1 [Example 176, [3-{3-[7-(2-methylpyridin-4-yl)-1,6-naphthyridin-5-yl]-1H-pyrazol-1-yl}-1-(2,2,2-trifluoroethyl)azetidin-3-yl]acetonitrile] | 71 nM | 966 nM | 634 nM | > 10 µM |
| Cc1ccc(-c2cc3ncccc3c(-c3ccn(C4(CC#N)CN(CC(F)(F)F)C4)n3)n2)cn1 [Example 177, [3-{3-[7-(6-methylpyridin-3-yl)-1,6-naphthyridin-5-yl]-1H-pyrazol-1-yl}-1-(2,2,2-trifluoroethyl)azetidin-3-yl]acetonitrile] | 58 nM | 2610 nM | 794 nM | > 10 µM |
| N#CCC1(n2ccc(-c3nc(-c4cncc(F)c4)cc4ncccc34)n2)CN(CC(F)(F)F)C1 [Example 178, [3-{3-[7-(5-fluoropyridin-3-yl)-1,6-naphthyridin-5-yl]-1H-pyrazol-1-yl}-1-(2,2,2-trifluoroethyl)azetidin-3-yl]acetonitrile] | 1370 nM | > 10000 nM | 6780 nM | > 10 µM |
| N#CCC1(n2ccc(-c3nc(-c4ccncc4F)cc4ncccc34)n2)CN(CC(F)(F)F)C1 [Example 179, [3-{3-[7-(3-fluoropyridin-4-yl)-1,6-naphthyridin-5-yl]-1H-pyrazol-1-yl}-1-(2,2,2-trifluoroethyl)azetidin-3-yl]acetonitrile] | 285 nM | > 10000 nM | 9670 nM | > 10 µM |
| N#CC[C@]1(n2ccc(-c3nc(-c4cccc(O)n4)cc4ncccc34)n2)C[C@@H](C#N)C1 [Example 181, cis-3-(cyanomethyl)-3-{3-[7-(6-hydroxypyridin-2-yl)-1,6-naphthyridin-5-yl]-1H-pyrazol-1-yl}cyclobutanecarbonitrile] | 40 nM | 853 nM | 123 nM | > 10 µM |
| N#CC[C@]1(n2ccc(-c3nc(-c4cccc(O)n4)cc4ncccc34)n2)C[C@H](C#N)C1 [Example 182, trans-3-(cyanomethyl)-3-{3-[7-(6-hydroxypyridin-2-yl)-1,6-naphthyridin-5-yl]-1H-pyrazol-1-yl}cyclobutanecarbonitrile] | 53 nM | 2020 nM | 224 nM | > 10 µM |
| N#CCC1(n2ccc(-c3nc(-c4ccc(O)nc4)cc4ncccc34)n2)CN(CC(F)(F)F)C1 [Example 183, [3-{3-[7-(6-hydroxypyridin-3-yl)-1,6-naphthyridin-5-yl]-1H-pyrazol-1-yl}-1-(2,2,2-trifluoroethyl)azetidin-3-yl]acetonitrile] | 21 nM | 384 nM | 397 nM | > 10 µM |
| CCN1CC(CC#N)(n2ccc(-c3nc(-c4ccc(O)nc4)cc4ncccc34)n2)C1 [Example 184] | 221 nM | 4030 nM | 4030 nM | > 10 µM |
| N#CCC1(n2ccc(-c3nc(-c4ccc(O)nc4)cc4ncccc34)n2)CN(C2CC(F)(F)C2)C1 [Example 185, [1-(3,3-difluorocyclobutyl)-3-{3-[7-(6-hydroxypyridin-3-yl)-1,6-naphthyridin-5-yl]-1H-pyrazol-1-yl}azetidin-3-yl]acetonitrile] | 88 nM | 2030 nM | 2070 nM | > 10 µM |
| COc1ncccc1-c1cc2ncccc2c(-c2ccn(C3(CC#N)CN(S(C)(=O)=O)C3)n2)n1 [Example 187, [3-{3-[7-(2-methoxypyridin-3-yl)-1,6-naphthyridin-5-yl]-1H-pyrazol-1-yl}-1-(methylsulfonyl)azetidin-3-yl]acetonitrile] | 781 nM | > 10000 nM | > 10000 nM | > 10 µM |
| COc1ccc(-c2cc3ncccc3c(-c3ccn(C4(CC#N)CN(CC(F)(F)F)C4)n3)n2)cn1 [Example 188, [3-{3-[7-(6-methoxypyridin-3-yl)-1,6-naphthyridin-5-yl]-1H-pyrazol-1-yl}-1-(2,2,2-trifluoroethyl)azetidin-3-yl]acetonitrile] | 80 nM | 2720 nM | 902 nM | > 10 µM |
| COc1cc(-c2cc3ncccc3c(-c3ccn(C4(CC#N)CN(S(C)(=O)=O)C4)n3)n2)ccn1 [Example 189] | 84 nM | 8340 nM | 725 nM | > 10 µM |
